Experimental findings from patent US20090247559A1 (Exelixis, Inc., priority 2007, published 2009) are described below.

The target in test [1] is CK2 (Homo sapiens, UniProt P68400). Put plainly: CK2 inhibition, biochemical chemiluminescence holoenzyme assay (Kinase Glo, IC50 determination). The following applies: Table 1 activity class; symbol given only if active; read-out: CK2 IC50 (Activity C). On the procedure: Characterization of CK2 Inhibition in a Biochemical Chemiluminesence Assay (IC50 Determination):
The IC50 evaluation of compounds against CK2 was performed in a Chemiluminesence Holoenzyme assay utilizing a Greiner 384-well white medium binding white plate format. […] The assay procedure involves the compound dilution scheme followed by addition of 10 μL of the substrate twice, followed by 10 μL twice of the respective enzyme or buffer to the designated well plates and subsequent pre-incubation of the compounds. Following an incubation period of 150 minutes at ambient temperature (24-27° C.), 10 μL of Kinase Glo (Promega) was added. The luminescence was measured following a Luminescence Protocol on a Victor plate reader.
A general note: Kinase-Glo measures the ATP left after a reaction by luminescence.

Test [2] deals with PIM (PIM-1, PIM-2, and/or PIM-3). Put plainly: PIM-1, PIM-2 and PIM-3 inhibition, biochemical chemiluminescence assays (Kinase Glo, IC50 determination). The following applies: Table 1 activity class; PIM refers to PIM-1, PIM-2, and/or PIM-3; read-out: PIM IC50 (Activity B). The protocol:
The IC50 evaluation of compounds against the PIM-1 oncogene was performed in a Chemiluminesence assay utilizing a Greiner 384-well white medium binding white plate format. […] Following an incubation period of 120 minutes at ambient temperature (24-27° C.), 10 μL of Kinase Glo (Promega) was added. The luminescence was measured following a Luminescence Protocol on a Victor plate reader.
The IC50 evaluation of compounds against the PIM-2 oncogene was performed in a Chemiluminesence assay utilizing a Greiner 384-well white medium binding white plate format. […] The assay procedure involves compound dilution followed by addition of 3 nM PIM-2 to the designated well plates and subsequent pre-incubation of the compounds with the enzyme for 30 minutes at ambient temperature (24-27° C.). […] Following an incubation period of 120 minutes at ambient temperature (24-27° C.), 10 μL of Kinase Glo (Promega) was added. The luminescence was measured following a Luminescence Protocol on a Victor plate reader.
The IC50 evaluation of compounds against the PIM-3 Oncogene was performed in a Chemiluminesence assay utilizing a Greiner 384-well white medium binding white plate format. […] Following an incubation period of 120 minutes at ambient temperature (24-27° C.), 10 μL of Kinase Glo (Promega) was added. The luminescence was measured following a Luminescence Protocol on a Victor plate reader.

The structures appear in SMILES notation.

Chain of CK2 (P68400 whole entry): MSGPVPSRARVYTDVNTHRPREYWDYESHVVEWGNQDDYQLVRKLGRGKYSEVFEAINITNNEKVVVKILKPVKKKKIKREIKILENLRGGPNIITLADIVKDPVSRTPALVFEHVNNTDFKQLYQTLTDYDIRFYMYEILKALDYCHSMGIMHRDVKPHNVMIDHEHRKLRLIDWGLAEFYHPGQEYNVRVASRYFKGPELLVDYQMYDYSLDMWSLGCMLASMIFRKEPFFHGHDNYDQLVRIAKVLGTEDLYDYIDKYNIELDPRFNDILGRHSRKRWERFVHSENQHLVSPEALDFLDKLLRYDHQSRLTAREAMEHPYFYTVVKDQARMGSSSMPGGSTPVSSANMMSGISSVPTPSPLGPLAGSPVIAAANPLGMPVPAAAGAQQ
Chain of CK2 (P67870 whole entry partner): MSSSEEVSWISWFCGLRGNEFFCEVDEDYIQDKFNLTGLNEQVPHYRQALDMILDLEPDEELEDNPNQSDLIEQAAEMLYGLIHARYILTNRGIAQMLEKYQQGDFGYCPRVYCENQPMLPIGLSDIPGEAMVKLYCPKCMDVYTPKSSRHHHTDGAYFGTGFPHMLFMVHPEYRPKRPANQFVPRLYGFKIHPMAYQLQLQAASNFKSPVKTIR

`CN1CCN(c2ccc(CNCc3nc4c(oc5ccc(Br)cc54)c(=O)[nH]3)cc2)CC1` [Compound 4, 8-bromo-2-[({[4-(4-methylpiperazin-1-yl)phenyl]methyl}amino)methyl][1]benzofuro[3,2-d]pyrimidin-4(3H)-one]: the IC50 in test [1] and in test [2] was under 10 µM in each case.

As to `O=c1[nH]c(Cn2ccnc2)nc2c1oc1ccc(Br)cc12` [Compound 6, 8-bromo-2-(1H-imidazol-1-ylmethyl)[1]benzofuro[3,2-d]pyrimidin-4(3H)-one], the IC50 in test [1] and in test [2] was under 10 µM in each case.

With `CN(C)c1ccccc1CNCc1nc2c(oc3ccc(Br)cc32)c(=O)[nH]1` [Compound 10, 8-bromo-2-[({[2-(dimethylamino)phenyl]methyl}amino)methyl][1]benzofuro[3,2-d]pyrimidin-4(3H)-one], the IC50 in test [1] and in test [2] was under 10 µM throughout.

Regarding `O=c1[nH]c(CNc2ccccc2Cl)nc2c1oc1ccc(Br)cc12` [Compound 11, 8-bromo-2-{[(2-chlorophenyl)amino]methyl}[1]benzofuro[3,2-d]pyrimidin-4(3H)-one], the IC50 in test [1] and in test [2] was under 10 µM each time.

For `O=c1[nH]c(CNc2cccc(F)c2)nc2c1oc1ccc(Br)cc12` [Compound 12, 8-bromo-2-{[(3-fluorophenyl)amino]methyl}[1]benzofuro[3,2-d]pyrimidin-4(3H)-one], the concentration for half-maximal inhibition (IC50) (in general, the concentration that gives 50% inhibition) in test [1] was under 10 µM.

Regarding `CN1CCN(c2cccc(CNCc3nc4c(oc5ccc(Br)cc54)c(=O)[nH]3)c2)CC1` [Compound 14, 8-bromo-2-[({[3-(4-methylpiperazin-1-yl)phenyl]methyl}amino)-methyl][1]benzofuro[3,2-d]pyrimidin-4(3H)-one], the IC50 in test [1] and in test [2] was under 10 µM in each case.

Regarding `O=c1[nH]c(COc2ccccc2)nc2c1oc1ccc(Br)cc12` [Compound 15, 8-bromo-2-[(phenyloxy)methyl][1]benzofuro[3,2-d]pyrimidin-4(3H)-one], the IC50 in test [1] and in test [2] was under 10 µM each time.

`O=c1[nH]c(CNc2ccccc2)nc2c1oc1ccc(Br)cc12` [Compound 16, 8-bromo-2-[(phenylamino)methyl][1]benzofuro[3,2-d]pyrimidin-4(3H)-one]: the IC50 in test [1] and in test [2] was under 10 µM in each case.

Take `CN(C)C1CCN(Cc2nc3c(oc4ccc(Br)cc43)c(=O)[nH]2)C1` (stereo not shown) [Compound 17, 8-bromo-2-{[3-(dimethylamino)pyrrolidin-1-yl]methyl}[1]benzofuro[3,2-d]pyrimidin-4(3H)-one]: the IC50 in test [1] and in test [2] was under 10 µM each time.

On to `CN(Cc1nc2c(oc3ccc(Br)cc32)c(=O)[nH]1)c1ccccc1Cl` [Compound 18, 8-bromo-2-{[(2-chlorophenyl)(methyl)amino]methyl}[1]benzofuro[3,2-d]pyrimidin-4(3H)-one], for which the IC50 in test [1] and in test [2] was under 10 µM throughout.

`O=c1[nH]c(CNc2ccccc2F)nc2c1oc1ccc(Br)cc12` [Compound 19, 8-bromo-2-{[(2-fluorophenyl)amino]methyl}[1]benzofuro[3,2-d]pyrimidin-4(3H)-one]: the IC50 in test [1] and in test [2] was under 10 µM each time.

Turning to `CN(C)c1cccc(CNCc2nc3c(oc4ccc(Br)cc43)c(=O)[nH]2)c1` [Compound 21, 8-bromo-2-[({[3-(dimethylamino)phenyl]methyl}amino)methyl][1]benzofuro[3,2-d]pyrimidin-4(3H)-one], the IC50 in test [1] and in test [2] was under 10 µM throughout.

Consider `O=c1[nH]c(CN2CCOCC2)nc2c1oc1ccc(Br)cc12` [Compound 24, 8-bromo-2-(morpholin-4-ylmethyl)[1]benzofuro[3,2-d]pyrimidin-4(3H)-one], for which the IC50 in test [1] and in test [2] was under 10 µM each time.

Take `O=c1[nH]c(-c2c(Cl)cccc2Cl)nc2c1oc1ccc(Br)cc12` [Compound 36, 8-Bromo-2-(2,6-dichlorophenyl)[1]benzofuro[3,2-d]pyrimidin-4(3H)-one]: the IC50 in test [1] and in test [2] was under 10 µM in each case.

On to `O=c1[nH]c(-c2cc(Cl)ccc2Cl)nc2c1oc1ccc(Br)cc12` [Compound 37, 8-Bromo-2-(2,5-dichlorophenyl)[1]benzofuro[3,2-d]pyrimidin-4(3H)-one], for which the IC50 in test [1] and in test [2] was under 10 µM each time.

Turning to `O=c1[nH]c(-c2ccccc2Br)nc2c1oc1ccc(Br)cc12` [Compound 38, 8-Bromo-2-(2-bromophenyl)[1]benzofuro[3,2-d]pyrimidin-4(3H)-one], the IC50 in test [1] and in test [2] was under 10 µM in each case.

For `CN(C)c1ccc(-c2nc3c(oc4ccc(Br)cc43)c(=O)[nH]2)c(Cl)c1` [Compound 41, 8-bromo-2-[2-chloro-4-(dimethylamino)phenyl][1]benzofuro[3,2-d]pyrimidin-4(3H)-one], the IC50 in test [1] and in test [2] was under 10 µM throughout.

In the case of `Cc1cc(N)ccc1-c1nc2c(oc3ccc(Br)cc32)c(=O)[nH]1` [Compound 50, 2-(4-amino-2-methylphenyl)-8-bromo[1]benzofuro[3,2-d]pyrimidin-4(3H)-one], the IC50 in test [1] and in test [2] was under 10 µM throughout.

Consider `O=c1[nH]c(-c2ccccc2O)nc2c1oc1ccc(Br)cc12` [Compound 51, 8-bromo-2-(2-hydroxyphenyl)[1]benzofuro[3,2-d]pyrimidin-4(3H)-one], for which the IC50 in test [1] and in test [2] was under 10 µM in each case.

As for `Cc1cc(NCC2CCNCC2)ccc1-c1nc2c(oc3ccc(Br)cc32)c(=O)[nH]1` [Compound 54, 8-bromo-2-{2-methyl-4-[(piperidin-4-ylmethyl)amino]phenyl}[1]benzofuro[3,2-d]pyrimidin-4(3H)-one], the IC50 in test [1] and in test [2] was under 10 µM each time.

On to `O=c1[nH]c(-c2ccccn2)nc2c1oc1ccc(Br)cc12` [Compound 57, 8-Bromo-2-pyridin-2-yl[1]benzofuro[3,2-d]pyrimidin-4(3H)-one], for which the IC50 in test [1] and in test [2] was under 10 µM in each case.

Turning to `O=c1[nH]c(-c2ccccc2F)nc2c1oc1ccc(Br)cc12` [Compound 58, 8-Bromo-2-(2-fluorophenyl)[1]benzofuro[3,2-d]pyrimidin-4(3H)-one], the IC50 in test [1] and in test [2] was under 10 µM throughout.

`O=C(Nc1ccc(Cl)c(-c2nc3c(oc4ccc(Br)cc43)c(=O)[nH]2)c1)C1CCNCC1` [Compound 392, ′N-[3-(8-bromo-4-oxo-3,4-dihydro[1]benzofuro[3,2-d]pyrimidin-2-yl)-4-chlorophenyl]piperidine-4-carboxamide]: the IC50 in test [2] was under 10 µM.

For `Nc1ccc(-c2nc3c(oc4ccccc43)c(=O)[nH]2)c(Cl)c1` [Compound 399, 2-(4-amino-2-chlorophenyl)[1]benzofuro[3,2-d]pyrimidin-4(3H)-one], in test [2], the IC50 is under 10 µM.

Take `CN1CCN(Cc2nc3c(nc4ccc(Br)cn43)c(=O)[nH]2)CC1` [Compound 417, 8-bromo-2-[(4-methylpiperazin-1-yl)methyl]pyrido[1,2-e]purin-4(3H)-one]: in test [2], the IC50 is under 10 µM.

As for `O=c1[nH]c(CN2CC[C@H](O)C2)nc2c1nc1ccc(Br)cn12` [Compound 418, 8-bromo-2-{[(3S)-3-hydroxypyrrolidin-1-yl]methyl}pyrido[1,2-e]purin-4(3H)-one], the IC50 in test [2] is under 10 µM.

In the case of `O=c1[nH]c(-c2ccc3nc[nH]c3c2)nc2c1oc1ccc(Br)cc12` [Compound 423, 2-(1H-benzimidazol-6-yl)-8-bromo[1]benzofuro[3,2-d]pyrimidin-4(3H)-one], in test [2], the IC50 was under 10 µM.

With `O=c1[nH]c(CN2CC[C@H](O)C2)nc2c1oc1ccc(NC3CCCCC3)cc12` [Compound 449, 8-(cyclohexylamino)-2-{[(3S)-3-hydroxypyrrolidin-1-yl]methyl}[1]benzofuro[3,2-d]pyrimidin-4(3H)-one], in test [2], the 50% inhibitory concentration (IC50) is under 10 µM.

With `CN1CCN(Cc2nc3c(oc4ccc(C#CCO)cc43)c(=O)[nH]2)CC1` [Compound 450, 8-(3-hydroxyprop-1-yn-1-yl)-2-[(4-methylpiperazin-1-yl)methyl][1]benzofuro[3,2-d]pyrimidin-4(3H)-one], the IC50 in test [2] is under 10 µM.

Take `COc1ccc2oc3c(=O)[nH]c(-c4ccc(N)cc4Cl)nc3c2c1` [Cpd 129, 2-(4-amino-2-chlorophenyl)-8-(methyloxy)[1]benzofuro[3,2-d]pyrimidin-4(3H)-one]: the IC50 in test [1] is under 10 µM.

For the molecule `COc1ccc2oc3c(=O)[nH]c(-c4ccc(NCC5CCN(C(=O)OC(C)(C)C)CC5)cc4Cl)nc3c2c1` [Cpd 137, 1,1-dimethylethyl 4-[({3-chloro-4-[8-(methyloxy)-4-oxo-3,4-dihydro[1]benzofuro[3,2-d]pyrimidin-2-yl]phenyl}amino)methyl]piperidine-1-carboxylate], the IC50 in test [1] is under 10 µM.
